# Test results from US12161648B2, “Covalent targeting of E3 ligases” (The Regents of the University of California, priority 2018, dated 2024).
# Assays:
# 231MFP cells = experiment: Survival and proliferation assay (Hoechst stain), 231MFP; format: cell-based, human; conditions: 48 h
# Protocol: Survival and Proliferation Assays. Cell survival and proliferation assays were performed as previously described using Hoechst 33342 dye (Invitrogen) according to manufacturer's protocol and as previously described^62. 231MFP cells were seeded into 96-well plates (40,000 for survival and 20,000 for proliferation) in a volume of 150 μl and allowed to adhere overnight. Cells were treated with an additional 50 μL of media containing 1:250 dilution of 1000× compound stock in DMSO. After the appropriate incubation period, media was removed from each well and 100 μl of staining solution containing 10% formalin and Hoechst 33342 dye was added to each well and incubated for 15 min in the dark at room temperature. After incubation, staining solution was removed, and wells were washed with PBS before imaging.
# Survival and Proliferation Assays. Cell survival and proliferation assays were performed as previously described using Hoechst 33342 dye (Invitrogen) according to manufacturer's protocol and as previously described^14. 231MFP cells were seeded into 96-well plates (40,000 for survival and 20,000 for proliferation) in a volume of 150 μl and allowed to adhere overnight. Cells were treated with an additional 50 μL of media containing 1:250 dilution of 1000× compound stock in DMSO. […]
# RNF114 [1] = experiment: RNF114 ubiquitination assay; format: biochemical, human; conditions: 50 μM, wild-type or C8A mutant RNF114
# Protocol: RNF114 ubiquitination assay. Recombinant Myc-Flag-RNF114 proteins were either purified from HEK292T cells as described above or purchased from Origene (Origene Technologies Inc., TP309752). For in vitro auto-ubiquitination assay, 0.2 μg of RNF114 in 25 μL of TBS was pre-incubated with DMSO vehicle or the covalently-acting compound for 30 min at room temperature. Subsequently, 0.1 μg of UBE1 (Boston Biochem. Inc, E-305), 0.1 μg UBE2D1 (Boston Bichem. Inc, e2-615), 5 μg of Flag-ubiquitin (Boston Bichem. Inc, u-120) in a total volume of 25 μL Tris buffer containing 2 mM ATP were added to achieve a final volume of 50 μL. The mixture was incubated at 37° C. with agitation for 1.5 h. 20 μL of Laemmli's buffer was added to quench the reaction and proteins were analyzed by western blot assay.
# RNF114 [2] = target: T1, RNF114 (Homo sapiens, UniProt Q9Y508); experiment: Gel-based ABPP, competition against JNS27 labeling of pure RNF114; format: binding; conditions: covalent ligands 50 μM
# T1 construct: Myc; FLAG; purchased Origene
# Protocol: (§1) Gel-Based ABPP. Gel-based ABPP methods were performed as previously described^34,62,63,67. Recombinant pure human proteins were purchased from Origene. […] CuAAC was performed to append rhodamine-azide (1 μM final concentration) onto alkyne probe-labeled proteins. Samples were then diluted with 20 μL of 4× reducing Laemmli SDS sample loading buffer (Alfa Aesar) and heated at 90° C. for 5 min. The samples were separated on precast 4-20% TGX gels (Bio-Rad Laboratories, Inc.). Prior to scanning by ChemiDoc MP (Bio-Rad Laboratories, Inc), gels were fixed in a solution of 10% acetic acid, 30% ethanol for 2 hrs. Inhibition of target labeling was assessed by densitometry using ImageJ.
# as §1, with “described^14.” for “described^34,62,63,67.”
# [3] = tested on: 231MFP breast cancer cell proteomes; experiment: isoTOP-ABPP proteome-wide selectivity in 231MFP proteomes in vitro; format: binding, human; conditions: 50 μM
# 231MFP tumor xenograft = 231MFP tumor xenograft growth in SCID mice; format: in vivo; conditions: 50 mg/kg ip, once per day, from day 17
# Protocol: Tumor xenograft studies. Human tumor xenografts were established by transplanting cancer cells ectopically into the flank of female C.B17 severe combined immunodeficiency (SCID) mice (Taconic Farms) as previously described^66,69 In brief, cells were washed with PBS, trypsinized, and harvested in serum-containing medium. Harvested cells were washed in serum-free media and resuspended in serum-free media at a concentration of 2.0×10^4 cells/μl, and 100 μl was injected subcutaneously into the flank of each mouse. Tumors were measured with calipers. Animal experiments were conducted in accordance with the guidelines of the Institutional Animal Care and Use Committees of the University of California, Berkeley.
# RNF4 [4] = target: T2, RNF4 (Homo sapiens, UniProt P78317); experiment: Gel-based ABPP, competition against IA-rhodamine labeling of pure RNF4; format: binding; conditions: for inhibition of IA-rhodamine labeling of RNF4: confirmation of screening hits; for hits from covalent ligand screen against IA-rhodamine labeling of RNF4: covalent ligands 50 μM, 30 min pre-incubation, IA-rhodamine 250 nM 1 h
# T2 construct: purchased Boston Biochem K-220
# T2 sequence (P78317 1-190): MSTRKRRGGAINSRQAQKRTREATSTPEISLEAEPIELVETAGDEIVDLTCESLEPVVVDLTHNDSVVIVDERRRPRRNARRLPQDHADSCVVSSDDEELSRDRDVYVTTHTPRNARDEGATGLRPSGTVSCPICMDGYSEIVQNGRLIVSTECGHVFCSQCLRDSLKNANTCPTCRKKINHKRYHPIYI
# Protocol: Gel-Based ABPP. Gel-based ABPP methods were performed as previously described^5,6,25,26. Pure recombinant human RNF4 was purchased from Boston Biochem (K-220). RNF4 (0.25 μg) was diluted into 50 μL of PBS and 1p L of either DMSO (vehicle) or covalently acting small molecule to achieve the desired concentration. After 30 minutes at room temperature, the samples were treated with 250 nM IA-Rhodamine (Setareh Biotech, 6222, prepared in anhydrous DMSO) for 1 h at room temperature. Samples were then diluted with 20 μL of 4× reducing Laemmli SDS sample loading buffer (Alfa Aesar) and heated at 90° C. for 5 min. The samples were separated on precast 4-20% Criterion TGX gels (Bio-Rad Laboratories, Inc.). Fluorescent imaging was performed on a ChemiDoc MP (Bio-Rad Laboratories, Inc) inhibition of target labeling was assessed by densitometry using ImageJ.
# RNF4 [5] = target: T2, RNF4; experiment: RNF4 in vitro auto-ubiquitination assay; format: biochemical; conditions: 100 μM pre-incubation
# Protocol: RNF4 ubiquitination assay. […] Subsequently, UBE1 (50 nM, Boston Biochem, E-305), UBE2D1 (400 nM Boston Bichem, E2-615), Flag-ubiquitin (4000 nM, Boston Biochem, U-120) and ATP (200 μM) were added in ubiquitination assay buffer bring the total volume to 30 μL. The mixture was incubated at RT for 30 min before quenching with 10 μL of 4× Laemmli's buffer. Ubiquitination activity was measured by separation on an SDS-PAGE gel and western blotting as previously described.
# RNF4 [6] = target: T2, RNF4; experiment: LC-MS/MS analysis of covalent adduct on RNF4; format: binding; conditions: 50 μM, 30 min, tryptic digests
# Protocol: LC-MS/MS analysis of RNF4. Purified RNF4 (10 μg) was diluted into 80 μL of PBS and treated for 30 min with DMSO or compound (50 μM). […] The samples were precipitated by additional of 20 μL of 100% (w/v) TCA and combined pairwise before cooling to −80 C for one hour.
# [7] = tested on: 231MFP breast cancer cell proteomes; experiment: Gel-based ABPP of general cysteine-reactivity in 231MFP lysates; format: binding, human; conditions: IA-rhodamine 250 nM
# Protocol: FIG. 5. Additional hits against RNF4 and general assessment of proteome-wide selectivity of RNF4 hits by gel-based ABPP. Gel-based ABPP analysis of DKM 2-76 and TRH 1-74 against IA-rhodamine labeling of RNF4. Covalent ligands were pre-incubated with pure RNF4 protein for 30 min prior to IA-rhodamine labeling (250 nM) for 1 h. Proteins were subjected to SDS/PAGE and visualized by in-gel fluorescence. Gel-based ABPP screen of RNF4 hits YP 1-44 and TRH 1-23 against IA-rhodamine labeling in 231MFP breast cancer cell proteomes. YP 1-44 and TRH 1-23 were pre-incubated with proteome for 30 min prior to IA-rhodamine labeling (250 nM) for 1 h. Proteins were subjected to SDS/PAGE and visualized by in-gel fluorescence.
# RNF114 [8] = target: T1, RNF114; experiment: Gel-based ABPP, nimbolide probe labeling of pure RNF114; format: binding; conditions: probe 10 μM, 1 h
# T1 sequence (Q9Y508 whole entry): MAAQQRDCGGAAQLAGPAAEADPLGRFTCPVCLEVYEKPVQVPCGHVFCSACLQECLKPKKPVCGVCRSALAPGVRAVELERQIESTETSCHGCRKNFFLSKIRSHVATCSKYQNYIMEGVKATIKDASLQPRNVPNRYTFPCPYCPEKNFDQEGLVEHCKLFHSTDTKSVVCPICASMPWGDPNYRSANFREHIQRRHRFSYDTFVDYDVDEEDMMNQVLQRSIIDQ
compound,measurement,setting,value
C=CC(=O)NCc1ccc(C(=O)Nc2sc(-c3ccccc3)c(C)c2C(=O)N2CCCCC2)cc1 [EN62],231MFP breast cancer cell survival,231MFP cells,impaired
same,RNF114 autoubiquitination activity,RNF114 [1],inhibited
same,hit from covalent ligand screen against RNF114,RNF114 [2],promising hit
same,proteome-wide selectivity,[3],exhibited proteome-wide selectivity
same,231MFP tumor xenograft growth,231MFP tumor xenograft,attenuated
O=C(CCl)Nc1ccc(Oc2ccccc2)cc1 [TRH 1-23],potency to be useful as an RNF4 recruiter,RNF4 [4],did not show sufficient potency
same,inhibition of IA-rhodamine labeling of RNF4,RNF4 [4],reproducible and dose-responsive inhibition
same,hits from covalent ligand screen against IA-rhodamine labeling of RNF4,RNF4 [4],potential hits
same,RNF4 autoubiquitination activity,RNF4 [5],does not inhibit
same,site-of-modification within RNF4,RNF4 [6],"covalently modified either, but not both, of the two zinc-coordinating cysteines CI32 and CI35"
"C=CC(=O)n1ccc2ccccc21 [YP 1-44, 1-(1H-indol-1-yl)prop-2-en-1-one]",inhibition of IA-rhodamine labeling of RNF4,RNF4 [4],reproducible and dose-responsive inhibition
same,hits from covalent ligand screen against IA-rhodamine labeling of RNF4,RNF4 [4],potential hits
same,"selectivity, general cysteine-reactivity",[7],much less selective compared to TRH 1-23
C#CCNC(=O)c1ccc(-c2occc2[C@@H]2C[C@H]3O[C@@H]4[C@@H]5OC(=O)[C@]6(C)C=CC(=O)[C@](C)([C@@H](CC(=O)OC)[C@]4(C)C3=C2C)[C@@H]56)cc1 [nimbolide probe],probe labeling of pure RNF114,RNF114 [8],reacts with pure human RNF114
